Experimental findings from patent US20260240931A1 (priority 2022, published 2026) are described below.

For data set [1], the system named is testosterone-induced androgenetic alopecia model. The experiment in a line: testosterone-induced androgenetic alopecia model: hair growth, skin color score, hair type frequency, hair thickness. The settings on record: on 1 week. The format is in vivo, C57BL/6 mice. As for the experimental part:
A testosterone-induced androgenetic alopecia model was fabricated using C57BL/6 mice. C57BL/6 mice (n=6) were divided into the following five groups: Normal group, Vehicle control group: Experimental group treated with 40 μg/kg/week testosterone, Experimental group treated with 5 mg/day Cs-EE (Connarus semidecandrus Jack. extract according to the present disclosure), Experimental group treated with 10 mg/day Cs-EE, and Positive control group: Experimental group treated with 5 mg/kg/day finasteride. To confirm a hair growth promoting effect of Cs-EE, the dorsal part of each mouse was treated with hair removal cream and shaved using an electric clipper twice; seven and three days before the first testosterone treatment.
40 μg/kg of testosterone was dissolved in sesame oil and then subcutaneously injected once a week four times. Thereafter, in the case of the Cs-EE-treated experimental group, Cs-EE diluted with PBS and DMSO (ratio of 1:1) was applied to the back part of the mouse once every day for three weeks. As the positive control group, 5 mg of finasteride was treated instead of Cs-EE of the present disclosure. Two days after the testosterone injection, mice in all experimental groups were euthanized. Thereafter, the dorsal hairs were isolated from each experimental group to confirm hair type frequency and hair thickness. […]

The test system of data set [2] is human hair follicle dermal papilla cells (HDPs). Particulars: 100 nM. As for the experimental part:
C57BL/6 mice (male, five weeks old) were purchased from Orient Bio. In addition, the mice were raised with sufficient water and food. The animal experiment of the present disclosure was performed in accordance with the guidelines ([…]-2021 Jul. 18-1) of the Institutional Animal Care and Use Committee (IACUC) at Sungkyunkwan University. The HDP cells were cultured in a HDP growth medium under conditions of 37° C. and 5% CO2.
Cell proliferation analysis was performed in the presence or absence of dihydrotestosterone ([…]). […] The optical density was detected at 540 nm.

As to `CC(C)(C)NC(=O)[C@H]1CC[C@H]2[C@@H]3CC[C@H]4NC(=O)C=C[C@]4(C)[C@H]3CC[C@]12C` [finasteride], in data set [1], the “hair growth on shaved skin (FIG. 2)” value was “remained hairless”.

With `C[C@]12CCC(=O)C[C@@H]1CC[C@@H]1[C@@H]2CC[C@]2(C)[C@@H](O)CC[C@@H]12` [DHT, dihydrotestosterone], the “cytotoxicity to HDP cells (FIG. 9B)” value in data set [2] is on record as “cytotoxic”.
